The values below come from US10005818B2, “Derivative peptide compounds and methods of use” (REALTA HOLDINGS, LLC, priority 2010, dated 2018).

Square brackets hold non-standard residues; d marks the D form. Ends that are not written are not given here. Peptide text beside a SMILES is read from it. Sar = CNCC(=O)O

One series is described as follows: Solubility in water. The series is classed as physicochemical.
For series [1], the system named is complement activation in factor B-depleted human sera. The series is classed as biochemical. As to conditions: for inhibition of complement activity in hemolytic assay: factor B depleted serum. Here is the method:
Peptides were diluted to 0.77 mM in factor B-depleted human sera (Complement Technologies, Inc.) and incubated for 1 hour at 37° C. These peptides were then diluted with GVBS^++ to equal 2.5/s serum, of which 0.25 ml was combined with 0.4 ml of GVBS^++ and 0.1 ml of sensitized sheep red blood cells (RBCs) and again incubated for 1 hour at 37° C. The procedure was stopped by the addition of 4.0 ml of GVBS^−−, centrifuged for 5 minutes at 1,620×g, and the absorbance of the supernatants was read at 412 nm in a spectrophotometer. The percent lysis of each sample was standardized to that of the serum only control.
The final concentration of peptide in factor B-depleted serum was 0.77 mM. Each peptide was evaluated in triplicate and the mean values are reported. […] In the hemolytic assay, soluble peptides are standardized to water and insoluble peptides standardized to DMSO.
Polar Assortant peptides were serially diluted in undiluted factor B-depleted human sera (Complement Technologies, Inc.) and incubated for 1 hour at 37° C. Water, GVBS^++ and DMSO were included as controls. These peptides were then diluted with GVBS^++ to equal 2.5/s serum, of which 0.25 ml was combined with 0.4 ml of GVBS^++ and 0.1 ml of sensitized sheep red blood cells (RBCs) and again incubated for 1 hour at 37° C. The procedure was stopped by the addition of 4.0 ml of GVBS^−−, centrifuged for 5 minutes at 1,620×g, and the absorbance of the supernatants was read at 412 nm in a spectrophotometer. The percent lysis of each sample was standardized to that of the serum only control.
The final concentration of peptide in factor B-depleted serum was 0.77 mM. […] In the hemolytic assay, soluble peptides were standardized to water and insoluble peptides standardized to DMSO.
The final concentration of peptide in factor B-depleted serum was 0.77 mM. […] In the hemolytic assay, soluble peptides are standardized to water and insoluble peptides standardized to DMSO.

The next series concerns acute kidney injury. Briefly: Acute kidney injury after xenotransfusion in AIHTR rat model (IVIG vs PIC1). As to conditions: prophylaxis 40 mg/animal. The format is in vivo. Here is the method:
For both experiments, animals allotted to the saline control group received NS prior to huRBC transfusion whereas the CVF group received 130 μg CVF (Complement Technologies, Inc.) intra-peritoneum (I.P.) 24 hours prior to the huRBC transfusion.
Using weight-based doses of ketamine and acepromazine, animals were sedated throughout the course of the experiment with periodic monitoring of vital signs. Blood samples were collected into EDTA microtainer tubes (BD) from the animals prior to the huRBC transfusion and then at 30 seconds, 5 minutes, 20 minutes, 60 minutes and 120 minutes after the huRBC transfusion. […] These samples were kept shaking at room temperature prior to processing and centrifuged at 2655×g for five minutes to separate out the plasma and sediment the RBCs. Plasma was aliquoted and the RBC pellet was processed separately as described below. Upon completion of the final (120 minutes or 360 minutes) blood draw, the animal was euthanized using Fatal Plus (Vortech). A necropsy was completed to collect organs (liver, spleen and bilateral kidney) for histopathology. […] Hematoxylin and eosin (H&E) stained sections were reviewed by a blinded pathologist.
To ascertain if the intravascular toxic free Hb would cause acute kidney injury, the animals were monitored for 6 hours post-transfusion.

Where [2] appears, read: Table 7, PEGylated and sarcosine/alanine substitution peptides.

Take `CC[C@H](C)[C@H](N)C(=O)N[C@@H](C)C(=O)N[C@@H](CC(C)C)C(=O)N[C@H](C(=O)N[C@@H](CC(C)C)C(=O)N[C@@H](C)C(=O)N1CCC[C@H]1C(=O)N[C@H](C(=O)N(C)CC(=O)N[C@@H](CS)C(=O)N[C@@H](CCC(N)=O)C(=O)N[C@@H](C)C(=O)N[C@@H](CCCNC(=N)N)C(=O)N[C@@H](C)C(=O)N[C@@H](C)C(=O)O)[C@@H](C)CC)[C@@H](C)CC` [Peptide E6AE12AC9Sar] (H-IALILAPI[Sar]CQARAA-OH): in the series “Solubility in water” (setting [2]), the Solubility in water result is listed as “No”. Moreover, in series [1], the “Hemolysis (%)” value was 2.99%.

For `CC[C@H](C)[C@H](N)C(=O)N[C@@H](C)C(=O)N[C@@H](CC(C)C)C(=O)N[C@H](C(=O)N[C@@H](CC(C)C)C(=O)N[C@@H](C)C(=O)N(C)CC(=O)N[C@H](C(=O)N[C@@H](CS)C(=O)N[C@@H](CS)C(=O)N[C@@H](CCC(N)=O)C(=O)N[C@@H](C)C(=O)N[C@@H](CCCNC(=N)N)C(=O)N[C@@H](C)C(=O)N[C@@H](C)C(=O)O)[C@@H](C)CC)[C@@H](C)CC` [Peptide E6AE12AP7Sar] (H-IALILA[Sar]ICCQARAA-OH; N-terminus and C-terminus assumed), the Solubility in water entry in “Solubility in water” (setting [2]) is on record as “Yes”. The “Hemolysis (%)” value in series [1] was determined as 4.60%.

With `CC[C@H](C)[C@H](N)C(=O)N[C@@H](C)C(=O)N[C@@H](CC(C)C)C(=O)N[C@H](C(=O)N[C@@H](CC(C)C)C(=O)N(C)CC(=O)N1CCC[C@H]1C(=O)N[C@H](C(=O)N(C)CC(=O)N[C@@H](CS)C(=O)N[C@@H](CCC(N)=O)C(=O)N[C@@H](CCC(=O)O)C(=O)N[C@@H](CCCNC(=N)N)C(=O)N[C@@H](C)C(=O)N[C@@H](C)C(=O)O)[C@@H](C)CC)[C@@H](C)CC` [Peptide E6SarC9Sar, IALIL(Sar)PI(Sar)CQERAA] (H-IALIL[Sar]PI[Sar]CQERAA-OH), in “Solubility in water” (setting [2]), the Solubility in water entry is reported as “Yes”. The “Hemolysis (%)” value in series [1] is recorded as 6.21%.

For the compound `CC[C@H](C)[C@H](N)C(=O)N[C@@H](C)C(=O)N[C@@H](CC(C)C)C(=O)N[C@H](C(=O)N[C@@H](CC(C)C)C(=O)N(C)CC(=O)N(C)CC(=O)N[C@H](C(=O)N[C@@H](CS)C(=O)N[C@@H](CS)C(=O)N[C@@H](CCC(N)=O)C(=O)N[C@@H](CCC(=O)O)C(=O)N[C@@H](CCCNC(=N)N)C(=O)N[C@@H](C)C(=O)N[C@@H](C)C(=O)O)[C@@H](C)CC)[C@@H](C)CC` [Peptide E6SarP7Sar] (H-IALIL[Sar][Sar]ICCQERAA-OH; N-terminus and C-terminus assumed), the Solubility in water entry in the series “Solubility in water” (setting [2]) is given as “Yes”. Also, in series [1], the “Hemolysis (%)” value is given as 3.57%.

For the compound `CC[C@H](C)[C@H](N)C(=O)N[C@@H](C)C(=O)N[C@@H](CC(C)C)C(=O)N[C@H](C(=O)N[C@@H](CC(C)C)C(=O)N[C@@H](CCC(=O)O)C(=O)N1CCC[C@H]1C(=O)N[C@H](C(=O)N(C)CC(=O)N[C@@H](CS)C(=O)N(C)CC(=O)N[C@@H](CCC(=O)O)C(=O)N[C@@H](CCCNC(=N)N)C(=O)N[C@@H](C)C(=O)N[C@@H](C)C(=O)O)[C@@H](C)CC)[C@@H](C)CC` [Peptide Q11SarC9Sar] (H-IALILEPI[Sar]C[Sar]ERAA-OH), the Solubility in water entry in the series “Solubility in water” (setting [2]) is on record as “Yes”. For the same compound, the “Hemolysis (%)” value in series [1] is on record as 15.42%.

Turning to `CC[C@H](C)[C@H](N)C(=O)N[C@@H](C)C(=O)N[C@@H](CC(C)C)C(=O)N[C@H](C(=O)N[C@@H](CC(C)C)C(=O)N[C@@H](CCC(=O)O)C(=O)N(C)CC(=O)N[C@H](C(=O)N[C@@H](CS)C(=O)N[C@@H](CS)C(=O)N(C)CC(=O)N[C@@H](CCC(=O)O)C(=O)N[C@@H](CCCNC(=N)N)C(=O)N[C@@H](C)C(=O)N[C@@H](C)C(=O)O)[C@@H](C)CC)[C@@H](C)CC` [Peptide Q11SarP7Sar, IALILE(Sar)ICC(Sar)ERAA] (H-IALILE[Sar]ICC[Sar]ERAA-OH; N-terminus and C-terminus assumed), the Solubility in water entry in the series “Solubility in water” (setting [2]) is given as “Yes”. Also, the “Hemolysis (%)” value in series [1] turned out to be 3.22%.

In the case of `CC[C@H](C)[C@H](N)C(=O)N[C@@H](C)C(=O)N[C@@H](CC(C)C)C(=O)N[C@H](C(=O)N[C@@H](CC(C)C)C(=O)N[C@@H](CCC(=O)O)C(=O)N1CCC[C@H]1C(=O)N[C@H](C(=O)N(C)CC(=O)N[C@@H](CS)C(=O)N[C@@H](CCC(N)=O)C(=O)N[C@@H](CCC(=O)O)C(=O)N(C)CC(=O)N[C@@H](C)C(=O)N[C@@H](C)C(=O)O)[C@@H](C)CC)[C@@H](C)CC` [Peptide R13SarC9Sar] (H-IALILEPI[Sar]CQE[Sar]AA-OH), the Solubility in water entry in the series “Solubility in water” (setting [2]) is listed as “No”. Further, in series [1], the “Hemolysis (%)” value stood at 84.81%.

On to `CC[C@H](C)[C@H](N)C(=O)N[C@@H](C)C(=O)N[C@@H](CC(C)C)C(=O)N[C@H](C(=O)N[C@@H](CC(C)C)C(=O)N[C@@H](CCC(=O)O)C(=O)N(C)CC(=O)N[C@H](C(=O)N[C@@H](CS)C(=O)N[C@@H](CS)C(=O)N[C@@H](CCC(N)=O)C(=O)N[C@@H](CCC(=O)O)C(=O)N(C)CC(=O)N[C@@H](C)C(=O)N[C@@H](C)C(=O)O)[C@@H](C)CC)[C@@H](C)CC` [Peptide R13SarP7Sar, IALILE(Sar)ICCQE(Sar)AA] (H-IALILE[Sar]ICCQE[Sar]AA-OH), for which the Solubility in water entry in the series “Solubility in water” (setting [2]) was “No”. The “Hemolysis (%)” value in series [1] came to 26.35%.

As for “ALILEPICC[Sar]ERAA (cysteine pairing not given here) [PA-Q11Sar]”, the Solubility in water result in “Solubility in water” (Table 5, sarcosine substitution peptides) is recorded as “No”. Also, the “Hemolysis (%)” value in series [1] worked out at 3.02%.

For Immune globulin intravenous [IVIG], in the series with acute kidney injury, the “gross appearance of kidneys at necropsy” value is “looked darker and enlarged”; the kidney weight result is “significant increase in weight compared to animals receiving PIC1”. The “gross hematuria / urine appearance” value in the series on acute kidney injury (6 hours post-transfusion) was “two of the three animals”. For the same compound, the kidney histopathology result with acute kidney injury (H&E) is given as “early acute tubular necrosis”.

On to “dPEG24-IALILEPICCQERAA (cysteine pairing not given here) [dPEG24-PA]”, for which, in “Solubility in water”, the “solubility in water / aqueous solutions” value is reported as “soluble in water”. Moreover, in series [1], the “inhibition of complement activity in hemolytic assay” value is listed as “varying degrees of complement inhibition”.

For the compound “dPEG24-IALILEPICCQERAA-dPEG24 (cysteine pairing not given here) [dPEG24-PA-dPEG24]”, the “solubility in water / aqueous solutions” value in “Solubility in water” is reported as “soluble in water”. In series [1], the “inhibition of complement activity in hemolytic assay” value is listed as “varying degrees of complement inhibition”.
